In PubChem BioAssay AID1963420 (Molecular Pharmacology Branch, DTP, NCI, 2024):

Tested on: 494315-158-R-J1-PDC complex spheroid growth, percent test/control
Experiment: Anticancer human tumor 494315-158-R-J1-PDC patient-derived soft tissue sarcoma cell line growth inhibition [Asc]
Conditions: for IC50: curve of first compound; for viability, T/C: stronger effect = lower value; active = viability on the fitted dose curve at most 10% of control; inactive = the rest
Outline: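 Tumor cells were grown as complex spheroids with human endothelial cells (HUVEC) and human mesenchymal stem cells as stroma. Agents were tested alone and in combination, in half-log steps down from the clinical Cmax, or from 10 microM where Cmax was unknown.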

[1] = second compound 0.03 µM, first compound 0.0316 µM
[2] = second compound 0.03 µM, first compound 0.1 µM
[3] = second compound 0.03 µM, first compound 0.316 µM
[4] = second compound 0.03 µM, first compound 1 µM
[5] = second compound 0.03 µM, first compound 3.16 µM
[6] = second compound 0.03 µM, first compound 10 µM
[7] = second compound 0.0949 µM, first compound 0.0316 µM
[8] = second compound 0.0949 µM, first compound 0.1 µM
[9] = second compound 0.0949 µM, first compound 0.316 µM
[10] = second compound 0.0949 µM, first compound 1 µM
[11] = second compound 0.0949 µM, first compound 3.16 µM
[12] = second compound 0.0949 µM, first compound 10 µM
[13] = second compound 0.3 µM, first compound 0.0316 µM
[14] = second compound 0.3 µM, first compound 0.1 µM
[15] = second compound 0.3 µM, first compound 0.316 µM
[16] = second compound 0.3 µM, first compound 1 µM
[17] = second compound 0.3 µM, first compound 3.16 µM
[18] = second compound 0.3 µM, first compound 10 µM
[19] = second compound 0.949 µM, first compound 0.0316 µM
[20] = second compound 0.949 µM, first compound 0.1 µM
[21] = second compound 0.949 µM, first compound 0.316 µM
[22] = second compound 0.949 µM, first compound 1 µM
[23] = second compound 0.949 µM, first compound 3.16 µM
[24] = second compound 0.949 µM, first compound 10 µM
[25] = second compound 3 µM, first compound 0.0316 µM
[26] = second compound 3 µM, first compound 0.1 µM
[27] = second compound 3 µM, first compound 0.316 µM
[28] = second compound 3 µM, first compound 1 µM
[29] = second compound 3 µM, first compound 3.16 µM
[30] = second compound 3 µM, first compound 10 µM
[31] = second compound 0.03 µM, first compound 0.00316 µM
[32] = second compound 0.03 µM, first compound 0.01 µM
[33] = second compound 0.0949 µM, first compound 0.00316 µM
[34] = second compound 0.0949 µM, first compound 0.01 µM
[35] = second compound 0.3 µM, first compound 0.00316 µM
[36] = second compound 0.3 µM, first compound 0.01 µM
[37] = second compound 0.949 µM, first compound 0.00316 µM
[38] = second compound 0.949 µM, first compound 0.01 µM
[39] = second compound 3 µM, first compound 0.00316 µM
[40] = second compound 3 µM, first compound 0.01 µM
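Also: compound exposure lasted seven days after spheroids formed for three days.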

C#Cc1c(F)ccc2cc(O)cc(-c3ncc4c(N5CC6CCC(C5)N6)nc(OCC56CCCN5CC(F)C6)nc4c3F)c12 (stereo not given) + CCN1C(C(=O)NC23CCC(C(=O)O)(CC2)CC3)C(c2cccc(Cl)c2F)C2(C(=O)Nc3cc(Cl)ccc32)C12CCCCC2
> 10 µM: IC50 (second compound 0.03 µM) | IC50 (second compound 0.0949 µM) | IC50 (second compound 0.3 µM) | IC50 (second compound 0.949 µM) | IC50 (second compound 3 µM)
inactive: viability, T/C [1] 94.3% | viability, T/C [2] 105% | viability, T/C [3] 116% | viability, T/C [4] 94.5% | viability, T/C [5] 108% | viability, T/C [6] 94.6% | viability, T/C [7] 89.9% | viability, T/C [8] 80.4% | viability, T/C [9] 98.2% | viability, T/C [10] 87.4% | viability, T/C [11] 90.5% | viability, T/C [12] 71.4% | viability, T/C [13] 95.1% | viability, T/C [14] 102% | viability, T/C [15] 102% | viability, T/C [16] 103% | viability, T/C [17] 108% | viability, T/C [18] 75.9% | viability, T/C [19] 85.1% | viability, T/C [20] 100% | viability, T/C [21] 107% | viability, T/C [22] 83.8% | viability, T/C [23] 110% | viability, T/C [24] 86.2% | viability, T/C [25] 89.5% | viability, T/C [26] 91.5% | viability, T/C [27] 89% | viability, T/C [28] 107% | viability, T/C [29] 100% | viability, T/C [30] 85.6%

C=C(F)C(=O)N1CCN(c2nc(OCC3CCCN3C)nc3c2CCN(c2cccc4cccc(Cl)c24)C3)CC1CC#N (stereo not given) + CCN1C(C(=O)NC23CCC(C(=O)O)(CC2)CC3)C(c2cccc(Cl)c2F)C2(C(=O)Nc3cc(Cl)ccc32)C12CCCCC2
active: viability, T/C [6] 0.19% | viability, T/C [12] 0.16% | viability, T/C [18] 0.19% | viability, T/C [24] 0.2% | viability, T/C [30] 0.27%
3.8 µM: IC50 (second compound 0.3 µM)
3.18 µM: IC50 (second compound 0.0949 µM)
inactive: viability, T/C [1] 106% | viability, T/C [2] 103% | viability, T/C [3] 105% | viability, T/C [4] 118% | viability, T/C [5] 66% | viability, T/C [7] 99.9% | viability, T/C [8] 101% | viability, T/C [9] 93.2% | viability, T/C [10] 95.2% | viability, T/C [11] 50.2% | viability, T/C [13] 110% | viability, T/C [14] 93% | viability, T/C [15] 80.3% | viability, T/C [16] 111% | viability, T/C [17] 59.5% | viability, T/C [19] 87.1% | viability, T/C [20] 109% | viability, T/C [21] 95.9% | viability, T/C [22] 76.7% | viability, T/C [23] 70% | viability, T/C [25] 96.7% | viability, T/C [26] 102% | viability, T/C [27] 100% | viability, T/C [28] 87.2% | viability, T/C [29] 65.6%
4.17 µM: IC50 (second compound 0.949 µM)
4.19 µM: IC50 (second compound 0.03 µM)
4.11 µM: IC50 (second compound 3 µM)

C=CC(=O)N1CCN(c2nc(=O)n(-c3c(C)ccnc3C(C)C)c3nc(-c4c(O)cccc4F)c(F)cc23)C(C)C1 (stereo not given) + CCN1C(C(=O)NC23CCC(C(=O)O)(CC2)CC3)C(c2cccc(Cl)c2F)C2(C(=O)Nc3cc(Cl)ccc32)C12CCCCC2
> 10 µM: IC50 (second compound 0.03 µM) | IC50 (second compound 0.0949 µM) | IC50 (second compound 0.3 µM) | IC50 (second compound 0.949 µM) | IC50 (second compound 3 µM)
inactive: viability, T/C [1] 111% | viability, T/C [2] 97.2% | viability, T/C [3] 119% | viability, T/C [4] 128% | viability, T/C [5] 128% | viability, T/C [6] 104% | viability, T/C [7] 90.4% | viability, T/C [8] 96.8% | viability, T/C [9] 96.3% | viability, T/C [10] 110% | viability, T/C [11] 92.8% | viability, T/C [12] 99.9% | viability, T/C [13] 97.6% | viability, T/C [14] 119% | viability, T/C [15] 111% | viability, T/C [16] 119% | viability, T/C [17] 114% | viability, T/C [18] 117% | viability, T/C [19] 85.5% | viability, T/C [20] 114% | viability, T/C [21] 106% | viability, T/C [22] 108% | viability, T/C [23] 130% | viability, T/C [24] 110% | viability, T/C [25] 102% | viability, T/C [26] 96.9% | viability, T/C [27] 97.9% | viability, T/C [28] 113% | viability, T/C [29] 126% | viability, T/C [30] 104%

CNC(C)C(=O)NC1CN(S(=O)(=O)c2cccc(S(=O)(=O)N3CCC4CCC(C(=O)NC(c5ccccc5)c5ccccc5)N4C(=O)C(NC(=O)C(C)NC)C3)c2)CCC2CCC(C(=O)NC(c3ccccc3)c3ccccc3)N2C1=O (stereo not given) + CCN1C(C(=O)NC23CCC(C(=O)O)(CC2)CC3)C(c2cccc(Cl)c2F)C2(C(=O)Nc3cc(Cl)ccc32)C12CCCCC2
0.0367 µM: IC50 (second compound 3 µM)
0.0381 µM: IC50 (second compound 0.0949 µM)
0.0834 µM: IC50 (second compound 0.949 µM)
0.0423 µM: IC50 (second compound 0.03 µM)
0.0411 µM: IC50 (second compound 0.3 µM)
inactive: viability, T/C [31] 87.4% | viability, T/C [32] 65.2% | viability, T/C [1] 54% | viability, T/C [2] 39.5% | viability, T/C [3] 43.4% | viability, T/C [4] 31.9% | viability, T/C [33] 66.8% | viability, T/C [34] 72.6% | viability, T/C [7] 45.8% | viability, T/C [8] 42% | viability, T/C [9] 31.1% | viability, T/C [10] 26.3% | viability, T/C [35] 70.9% | viability, T/C [36] 63.6% | viability, T/C [13] 51.9% | viability, T/C [14] 43.9% | viability, T/C [15] 36.7% | viability, T/C [16] 38.5% | viability, T/C [37] 71% | viability, T/C [38] 62.3% | viability, T/C [19] 60.6% | viability, T/C [20] 49.2% | viability, T/C [21] 36.7% | viability, T/C [22] 34.4% | viability, T/C [39] 67.6% | viability, T/C [40] 61.7% | viability, T/C [25] 51.2% | viability, T/C [26] 41.1% | viability, T/C [27] 28.4% | viability, T/C [28] 31.4%

COc1c(OCCCN2CCOCC2)ccc2c3n(c(=NC(=O)c4cnc(N)nc4)nc12)CCN3 + CCN1C(C(=O)NC23CCC(C(=O)O)(CC2)CC3)C(c2cccc(Cl)c2F)C2(C(=O)Nc3cc(Cl)ccc32)C12CCCCC2
0.0356 µM: IC50 (second compound 0.949 µM)
inactive: viability, T/C [31] 84% | viability, T/C [32] 80.5% | viability, T/C [1] 58.5% | viability, T/C [2] 30.8% | viability, T/C [3] 20.5% | viability, T/C [4] 15.4% | viability, T/C [33] 78.7% | viability, T/C [34] 73.7% | viability, T/C [7] 54% | viability, T/C [8] 30.4% | viability, T/C [9] 22% | viability, T/C [10] 15.4% | viability, T/C [35] 91.2% | viability, T/C [36] 90.4% | viability, T/C [13] 49.9% | viability, T/C [14] 38% | viability, T/C [15] 22.3% | viability, T/C [16] 16.7% | viability, T/C [37] 93.3% | viability, T/C [38] 81.6% | viability, T/C [19] 50.6% | viability, T/C [20] 30.7% | viability, T/C [21] 19.2% | viability, T/C [22] 16.4% | viability, T/C [39] 112% | viability, T/C [40] 86.5% | viability, T/C [25] 59.6% | viability, T/C [26] 32.1% | viability, T/C [27] 22.6% | viability, T/C [28] 15.2%
0.039 µM: IC50 (second compound 0.0949 µM)
0.0462 µM: IC50 (second compound 3 µM)
0.0436 µM: IC50 (second compound 0.3 µM)
0.0458 µM: IC50 (second compound 0.03 µM)
